Experimental data reported in US20090029369A1, “GENETIC SELECTION SYSTEM TO IDENTIFY PROTEASES, PROTEASE SUBSTRATES AND PROTEASE INHIBITORS” (priority 2005, published 2009).
Where a chain is given by its changes, count along the chain named.

Legend:
[1] = target: T1, CMV protease (Human cytomegalovirus, UniProt P16753); assay: yeast growth selection assay: RLY07 cells co-expressing Trp1(194)-M substrate and CMV protease; assay type: cell-based; parameters: The CMV protease gene encoding amino acids 1-256 of the 75 kDa precursor was obtained by PCR from CMV infected MRC5 human cells; expressed in transfected cells; host or cells: Saccharomyces cerevisiae RLY07 (pdr5Δ snq2Δ yor1Δ); Protease on CEN4-ARS1 plasmid pMH51 under the GAL1 promoter; settings: for effect of increasing concentrations on cell proliferation: concentration series, active protease, ~2 days at 30° C., 96-well plates
Description: (§1) RLY07 cells transformed with the different TRP1-M constructs and a plasmid encoding the CMV protease or the empty vector were inoculated in 3 ml of 2% galactose -ura -leu medium and grown at 30° C. to OD600 1. They were washed with 5 ml H2O and resuspended in 2% galactose -ura -leu -trp medium supplemented with 10% glycerol (=growth selection medium, glycerol promotes CMV protease dimerisation and subsequent proteolytic activity) and diluted to a start OD600 0.01. For the experiments with the coxackievirus 3C protease, preculture medium was 2% glucose -ura -leu, assay medium was 2% glucose -ura -leu trp, and inoculation OD600 0.001. At time zero, assay cultures at the aforesaid start OD600 were distributed in 96-well microtiter plates, with a volume of 150 μl per well, and incubated without shaking at 30° C. At the time points indicated in the “results” section, plates were shaken to resuspend cells before being submitted to light scattering measurement at 595 nm in a Tecan Genios reader for determining cell density.
CMV protease inhibitors BI31 and BI36 (Boeringher Ingelheim, Quebec) were dissolved in DMSO and added to the assay cultures at time zero of the growth assay. Final DMSO concentration was 1%.
RLY07 cells co-expressing Trp1^194-M substrate and the CMV protease were incubated with a concentration series of BI31 and BI36 in 96-well microtiter plates and cultivated under selective conditions. […] Importantly, despite this toxicity BI31 still stimulates growth of cells expressing the active protease (triangles). For example, at 50 μM cell density is multiplied by a factor 4 despite 25% toxicity.

[2] = test system: RLY07 cells; assay: growth of RLY07 cells expressing the inactive, point-mutated CMV protease (toxicity control); assay type: cell-based, S. cerevisiae
Description: as §1
CMV protease inhibitors BI31 and BI36 (Boeringher Ingelheim, Quebec) were dissolved in DMSO and added to the assay cultures at time zero of the growth assay. Final DMSO concentration was 1%. […]

[3] = target: T1, CMV protease; assay: Western blot of Trp1(194)-M substrate cleavage by CMV protease in yeast; assay type: cell-based; parameters: The CMV protease gene encoding amino acids 1-256 of the 75 kDa precursor was obtained by PCR from CMV infected MRC5 human cells; expressed in transfected cells; host or cells: Saccharomyces cerevisiae RLY07; Protease on plasmid pMH51 under the GAL1 promoter
Description: Yeast whole cell extracts were prepared as described by Burke et al. (Burke, Dawson et al. 2000). Proteins were separated by SDS-PAGE and Western blot analysis was performed according to standard procedures (Ausubel et al., 2003, Current Protocols in Molecular Biology). An HA-monoclonal antibody from Sigma (clone 3F10) was used at a concentration of 30 ng/ml to detect expression of TRP1(194)-M.
The Western blot was performed to provide biochemical evidence for inhibition of cleavage of CMV protease by compound BI36 (FIG. 5B). […] As in the Western blot on FIG. 3C, unfortunately no cleavage products could be detected.

[4] = target: Trp1-2C/3A substrate: yeast Trp1p with the 13 amino acid coxsackievirus B3 2C/3A cleavage sequence inserted after Gly194 (Saccharomyces cerevisiae; coxsackievirus B3) (UniProt P00912); assay: cell-based or functional assay
[5] = target: Trp1(194)-M (short): yeast Trp1p with the 13 amino acid CMV M-site cleavage sequence inserted after Gly194 (Saccharomyces cerevisiae; human cytomegalovirus) (UniProt P00912); assay: cell-based or functional assay
[6] = target: Trp1(194)-M (long): yeast Trp1p with the 39 amino acid CMV M-site cleavage sequence inserted after Gly194 (Saccharomyces cerevisiae; human cytomegalovirus) (UniProt P00912); assay: cell-based or functional assay
[7] = target: T2, Trp1(194)-M with HA tags at both the N-terminus and the C-terminus, P00912
T2 chain: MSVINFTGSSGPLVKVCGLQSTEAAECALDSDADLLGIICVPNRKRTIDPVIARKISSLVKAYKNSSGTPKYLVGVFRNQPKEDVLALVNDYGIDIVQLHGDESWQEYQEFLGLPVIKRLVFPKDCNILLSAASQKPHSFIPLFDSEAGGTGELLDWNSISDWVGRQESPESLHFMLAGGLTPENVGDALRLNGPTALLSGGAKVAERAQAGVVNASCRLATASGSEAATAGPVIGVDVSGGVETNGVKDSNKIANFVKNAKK

[8] = target: point-mutated Trp1(194)-M (A→E) substrate with HA tags, as blotted, P00912

Molecule: CN(Cc1ccc(C(F)(F)F)cc1)C(=O)N1C(=O)C[C@@H]1CSc1ncccn1 [BI31]
- factor by which cell density is multiplied ([1]; 50 μM, cells expressing the active protease): 4
- effect of increasing concentrations on cell proliferation [1]: dose-dependent increase of cell proliferation
- toxicity ([2]; 50 μM): 25%
- toxic effect on cells (decrease of cell proliferation) ([2]; increasing concentrations, cells expressing inactive protease): dose-dependent toxic effect

Molecule: CN(Cc1ccc([N+](=O)[O-])cc1)C(=O)N1C(=O)C[C@@H]1CSc1nnnn1C [BI36]
- EC50 [1]: 31 µM
- CMV protease inhibition judged from OD600 versus cells expressing inactive protease ([1]; 100 μM): almost completely inhibited
- effect of increasing concentrations on cell proliferation [1]: dose-dependent increase of cell proliferation
- inhibition of proteolysis (Western blot) ([3]; 10 μM): only slightly inhibited
- inhibition of cleavage (Western blot) ([3]; 100 μM): inhibits the cleavage almost completely
- inhibition of substrate cleavage (Western blot) ([3]; concentration series 100 μM, 30 μM, 10 μM): prevented substrate cleavage in a dose-dependent manner

Molecule: cysteine protease 3C from coxsackievirus B3 (from UniProt P03313 1541-1723) (enzyme)
- cell growth in selective medium lacking tryptophan after 27 h at 30° C., against cells expressing only the substrate [4]: 60%

Molecule: human cytomegalovirus (CMV) protease, amino acids 1-256 of the 75 kDa precursor (from UniProt P16753 1-256) (enzyme)
- OD600 of co-expressing RLY07 cells in liquid selective medium after 36 hours, against control cells with an empty plasmid instead of the protease plasmid [5]: 35%
- proliferation reduction in medium lacking tryptophan for 38 h (FIG. 3B, lanes 1, 2) [5]: 35%
- proliferation reduction in medium lacking tryptophan for 38 h [6]: 85%

B1: human cytomegalovirus (CMV) protease, amino acids 1-256 of the 75 kDa precursor (protein)
chain: MTMDEQQSQAVAPVYVGGFLARYDQSPDEAELLLPRDVVEHWLHAQGQGQPSLSVALPLNINHDDTAVVGHVAAMQSVRDGLFCLGCVTSPRFLEIVRRASEKSELVSRGPVSPLQPDKVVEFLSGSYAGLSLSSRRCDDVEAATSLSGSETTPFKHVALCSVGRRRGTLAVYGRDPEWVTQRFPDLTAADRDGLRAQWQRCGSTAVDASGDPFRSDSYGLLGNSVDALYIRERLPKLRYDKQLVGVTERESYVKA
- anti-HA Western blot of yeast extracts, full-length 33 kDa substrate band (FIG. 3C, lane 2) [7]: Co-expression of active CMV protease (lane 2) causes disappearance of the full-length substrate
- anti-HA Western blot, 33 kDa band (FIG. 5B, lane 2) [7]: co-expressing the active protease instead of the inactive version causes disappearance of the 33 kDa band
- anti-HA Western blot of yeast extracts, full-length substrate band (FIG. 3C, lane 4) [8]: active protease has no effect on the point-mutated Trp1(194)-M (A→E) substrate, as the band is also present

B2: inactive version of the CMV protease harbouring the S(132) A mutation at the catalytic site (protein)
chain: B1 chain with S132A
- anti-HA Western blot of yeast extracts, full-length 33 kDa substrate band (FIG. 3C, lane 3) [7]: the inactive CMV protease does not cleave the Trp1(194)-M substrate (since the full-length substrate band does not disappear)
- anti-HA Western blot, 33 kDa band (FIG. 5B, lane 1) [7]: A 33 kDa band corresponds to the full-length Trp1(194)-M substrate upon co-expression with inactive CMV protease
